Experimental data published in US20250090437A1, “COSMETIC COMPOUNDING AGENT, COSMETIC AND PRODUCTION METHOD THEREOF” (MIYOSHI OIL & FAT CO., LTD., priority 2019, published 2025).

Columns and labels:
[1] = Sensory evaluation on damaged hair after using organic ammonium salt; set-up: species or system human; settings: damaged hair, 80 wt % aqueous solution
Procedure: Here, an 80 wt % aqueous solution(s) of each of the compounds B11, B12, B23, B26 and B27 (content in terms of anhydride in the cases of the compounds B11, B12 and B23) were prepared and used as samples. Next, one minute was spent in evenly applying 10.0 g of each sample to a bundle of the damaged hairs weighing about 10 g, using a brush; the bundle of the damaged hairs was then left for 5 min. After leaving it for 5 min, the bundle of the damaged hairs was rinsed with a hot water of 40° C. for 30 sec, and evaluated was a finger-combing capability at the time of performing washing. The hair bundle that had been rinsed was then dried with a towel and further subjected to air drying for a day, followed by evaluating items such as elasticity/resilience (feeling by bare hands), cohesiveness, surface smoothness and non-waviness, from the perspective of superiority or inferiority to a test hair bundle(s) uncoated with the sample.

[2] = Sensory evaluation on healthy hair after using organic ammonium salt; set-up: species or system human; key to When washing: Finger-combing capability: ⊚: Superior; ∘: Favorable; Δ: No change; x: Inferior; settings: healthy hair, 80 wt % aqueous solution
Procedure: Here, an 80 wt % aqueous solution(s) of each of the compounds B11, B12, B23, B26 and B27 (content in terms of anhydride in the cases of the compounds B11, B12 and B23) were prepared and used as samples. Next, one minute was spent in evenly applying 10.0 g of each sample to a bundle of the healthy hairs weighing about 10 g, using a brush; the bundle of the healthy hairs was then left for 5 min. After leaving it for 5 min, the bundle of the healthy hairs was rinsed with a hot water of 40° C. for 30 sec, and evaluated was a finger-combing capability at the time of performing washing. The hair bundle that had been rinsed was then dried with a towel and further subjected to air drying for a day, followed by evaluating items such as flexibility, finger-combing capability, texture, elasticity/resilience (feeling by bare hands), volume increase (visual evaluation), cohesiveness, moist feeling, surface smoothness, non-stickiness (feeling by bare hands) and gloss (visual evaluation), from the perspective of superiority or inferiority to a test hair bundle(s) uncoated with the sample.

[3] = Water retention property and adherability with respect to healthy hair; set-up: species or system human
Procedure: In the following evaluations, a human black hair produced by Beaulax Co., Ltd was used as a healthy hair. A damaged hair was prepared by repeatedly having the healthy hair permed and bleached three times.
An 80 wt % aqueous solution of each of the compounds B1 to B26 (content in terms of anhydride in the cases of the compounds B1 to B23) was prepared, followed by using a Karl Fischer moisture meter (KF-200 by Mitsubishi Chemical Analytech Co., Ltd.) to confirm that a moisture rate was 20.0 wt %. As a healthy hair, there was used a chemically untreated healthy hair (human black hair by Beaulax Co., Ltd). The moisture rate (pre-test moisture rate A) of the hair was measured by an infrared moisture meter (by Kett Electric Laboratory).
After immersion, the hair was taken out, and KimWipes were then used to wipe off the compound until a change in weight was no longer observed, followed by measuring the weight of the hair (post-test hair weight B). The hair from which the compound had been wiped off was then placed into a thermo-hygrostat set to 40° C. and 35 to 40% RH. A moisture rate after 24 hours (post-test moisture rate B) was then measured, followed by calculating a rate of reduction in moisture with the following formula. Likewise, instead of the 80 wt % aqueous solution, evaluation was also performed in a similar manner using only an ion-exchange water (comparative example B4).
Further, an adhesion rate of the compound adhering to the hair was calculated with the following formula. […]

[4] = Affinity to hair (contact angle); settings: 50 wt % aqueous solution; condition B (hair iron, 160° C.)
[5] = Sensory evaluation on healthy hair after using shampoo agent containing organic ammonium salt; set-up: species or system human; settings: shampoo agent containing 3.0% by mass of the compound; treated 10 times
Procedure: (§1) Next, the mixture was cooled to a temperature of 30° C. or lower, and a purified water of an evaporated amount was then added thereto so that the whole hair treatment composition would be 100% by mass, followed by uniformly mixing them so as to obtain a hair treatment composition(s). The pH level of the hair treatment composition was adjusted to pH 6.0 by adding a citric acid or sodium hydroxide.
About 5 g of the healthy hair was taken and dipped into 350 ml of a seven-time dilute aqueous solution of each of the abovementioned hair treatment compositions (shampoo agents) at 35 to 40° C. so as to be washed. The healthy hair was then subjected to a rinsing treatment five times using 500 ml of a warm water of 35 to 40° C., followed by drying the same at 80° C., and then performing air drying at 25° C. Such series of treatment involving hair washing, rinsing and drying was repeated 10 times to then evaluate a cohesiveness of the hair, a moist feeling of the hair, a gloss of the hair, a surface smoothness of the hair and a non-stickiness on the surface of the hair, after performing air drying.

[6] = Sensory evaluation on damaged hair after using shampoo agent containing organic ammonium salt; set-up: species or system human; settings: shampoo agent containing the compound; treated 10 times
Procedure: as §1
The damaged hair was repeatedly treated 10 times in a similar manner as 3-1; evaluated were a cohesiveness of the hair, surface smoothness of the hair and waviness of the hair after performing air drying.

[7] = Sensory evaluation on healthy hair after using conditioner containing organic ammonium salt; set-up: species or system human; settings: conditioner containing 3.0% by mass of the compound
Procedure: Here, 4.5% by mass of a stearyl alcohol (KALCOL 8688 by Kao Corporation), 2.0% by mass of a behenyl alcohol (KALCOL 220-80 by Kao Corporation) and 0.5% by mass of a phenoxyethanol (Hisolve EPH by TOHO Chemical Industry Co., Ltd.) were mixed together and heated to 75° C. to obtain a liquid A. Further, 3.0% by mass of a behentrimonium chloride (CATINAL DC-80 by TOHO Chemical Industry Co., Ltd.), 5.0% by mass of dipropylene glycol and 3.0% by mass of each of the compounds B11, B23, B26, B27 and B28 (content in terms of anhydride in the cases of the compounds B11 and B23) were added together, followed by adding a purified water thereto, and then melting them at 80° C., thus obtaining a liquid B. The liquid B was then gradually added to the liquid A, and stirring was performed at 75° C. for 20 min. Next, the mixture was cooled to a temperature of 40° C. or lower, and a purified water of an evaporated amount was then added thereto so that the whole hair treatment composition would be 100% by mass, followed by uniformly mixing them so as to obtain a hair treatment composition(s).
About 5 g of the healthy hair was dipped into and kept immersed in 150 g of a seven-time dilute aqueous solution of each of the abovementioned hair treatment compositions (conditioners) at 40° C. for 30 min. […] After air drying, a combing capability, cohesiveness and non-stickiness of the hair were evaluated.

[8] = Surface resistance measurement of organic ammonium salt; settings: 0.7 g applied to polyurethane artificial leather; dried, coating in solid state
[9] = Water confinement property test (barrier property); type: physicochemical; settings: 80 wt % aqueous solution, 0.01 mL/cm^2 on filter paper, 40° C. and 25% RH, 24 hours
Procedure: Next, 20.0 g of an ion-exchange water was put into a 40 mL pierce vial bottle (by AS ONE Corporation.), followed by removing an inner lid (rubber plug) of the pierce vial bottle, placing on the pierce vial bottle the filter paper to which each sample had been applied, and then plugging the bottle with an outer lid.
Further, Wm1, Wm2, Sm1 and Sm2 in the formula below respectively represent the following numerical values.
Wm1: Weight of ion-exchange water in vial before storage (using filter paper to which only ion-exchange water had been applied)
Wm2: Weight of ion-exchange water in vial after 24 hours (using filter paper to which only ion-exchange water had been applied)
Sm1: Weight of ion-exchange water in vial before storage (using filter paper to which sample had been applied)
Sm2: Weight of ion-exchange water in vial after 24 hours (using filter paper to which sample had been applied)

[10] = Water retention property test 1; type: physicochemical; settings: 80 wt % aqueous solution
Procedure: A moisture rate after 24 hours was again measured (post-test moisture rate: B), followed by using the formula below to calculate a rate of reduction in moisture so as to evaluate the water retention property. • Pre-test moisture rate: A (%) • Post-test moisture rate: B (%)

[11] = Stability of ascorbic acid-based compound (coloration); type: physicochemical; set-up: key to Appearance (Visual evaluation) Immediately after preparatiom / Appearance (Visual evaluation) After 7 days 50° C. / Appearance (Visual evaluation) After 7 days Room temperature: ⊚: Colorless and transparent; ∘: Light yellow; Δ: Yellow; x: Brown to black; settings: 33 wt % aqueous solution
Procedure: With regard to a 33 wt/% aqueous solution of each of the compounds C46, C49 and C98 to C100 and water, a stability in an aqueous solution condition was visually evaluated. An evaluation method was such that there was prepared a 33 wt % aqueous solution of each of the compounds C46, C49 and C98 to C100, the aqueous solution was then left to stand still at room temperature or in a thermostatic bath of 50° C. for seven days; coloration before and after the still standing was visually confirmed. The evaluation criteria were as follows. • ⊚: Colorless and transparent • ∘: Light yellow • Δ: Yellow • x: Brown to black

[12] = system: Tyrosinase; assay: Whitening effect: tyrosinase activity inhibition test; type: biochemical; settings: compound concentration 500 μg/mL; substrate D, L-DOPA; room temperature for a week
Procedure: With regard to a 50 wt/% aqueous solution of each of the compounds C46, C49 and C101, a whitening effect was confirmed via a tyrosinase activity inhibition test. Tyrosinase (by SIGMA-ALDRICH) was dissolved with a 67 mM phosphate buffer solution (pH 6.8) so that the concentration of the tyrosinase would be 0.2 mg/mL, thereby obtaining an enzyme solution. Further, a substrate solution was prepared by dissolving 3 mg of D, L-DOPA (by Tokyo Chemical Industry Co., Ltd.) into 10 mL of the 67 mM phosphate buffer solution. […] Next, 80 μL of the substrate solution was quickly added to the preincubated solution, and an absorbance (A1) at 475 nm immediately after the addition of the substrate solution was then measured. Further, after leaving this solution to stand still at room temperature for a week, an absorbance (A2) at 475 nm was again measured.
In addition, as a control, there were prepared samples containing an ultrapure water instead of the compounds of the working examples; and in a similar manner as above, there were measured an absorbance (A3) at 475 nm immediately after the addition of the substrate, and an absorbance (A4) at 475 nm after leaving the solution at room temperature for a week.
An inhibition rate was calculated with the following formula.

[13] = Water retention property and adherability with respect to damaged hair; set-up: species or system human; settings: concentration 50 wt % (Table 11)
Procedure: A damaged hair was prepared by the following method.
A damaged hair was produced by performing these perm treatment and bleach treatment three times.

For `NC(CO)(CO)CO.O=C(O)CO` [Compound B12], which “After air drying: Cohesiveness of hair” value [1] is on record?
The value was “◯~Δ”.

What about the “After air drying: Elasticity/Resilience” value [1] of the same compound?
The value was “◯~Δ”.

What about the “After air drying: Smoothness of hair surface” value [1] of the same compound?
The value was “◯~Δ”.

What about the “After air drying: Suppression of hair waviness” value [1] of the same compound?
Its value is “◯”.

What about the “When washing: Finger-combing capability” value [1] of the same compound?
The value was “◯~Δ”.

And the “After air drying: Cohesiveness of hair” value [2]?
The value was “◯~Δ”.

And the “After air drying: Elasticity/Resilience” value [2]?
The value was “◯~Δ”.

And the “After air drying: Finger-combing capability” value [2]?
The value was “◯~Δ”.

What about the “After air drying: Flexibility” value [2] of the same compound?
The value was “◯~Δ”.

What about the “After air drying: Gloss of hair” value [2] of the same compound?
The value was “◯~Δ”.

And the “After air drying: Moist feeling” value [2]?
The value was “◯~Δ”.

And the “After air drying: Non-stickiness of hair surface” value [2]?
Its value is “◯~Δ”.

What about the “After air drying: Smoothness of hair surface” value [2] of the same compound?
Its value is “◯~Δ”.

What about the “After air drying: Texture” value [2] of the same compound?
Its value is “◯~Δ”.

What about the “After air drying: Volume increase” value [2] of the same compound?
Its value is “◯~Δ”.

What about the “When washing: Finger-combing capability” value ([2]; versus uncoated hair bundle) of the same compound?
Its value is “⊚”.

And the Compound adhesion rate ([3]; healthy hair immersed 60 min in 80 wt % aqueous solution)?
The Compound adhesion rate was 1.6%.

And the Post-test moisture rate ([3]; healthy hair immersed 60 min in 80 wt % aqueous solution, after 24 hours at 40° C., 35 to 40% RH, pre-test 7.6%)?
Its Post-test moisture rate is 5.4%.

And the “Rate of reduction in moisture” value ([3]; healthy hair, 80 wt % aqueous solution, 24 hours at 40° C., 35 to 40% RH)?
The value was 29%.

And the “Contact angle of water droplet on treated hair” value [4]?
Its value is “infiltrated the hair”.

With `CC(O)C(=O)[O-].[Na+]` (centres unmarked) [Compound B28, sodium lactate] as the compound, how does the “Sensory evaluation of healthy hair after shampoo agent (cohesiveness, moist feeling, gloss, smoothness, non-stickiness)” value [5] read?
The value was “inferior in general”.

What about the “Sensory evaluation of damaged hair after shampoo agent (cohesiveness, surface smoothness, waviness)” value [6] of the same compound?
The value was “inferior surface smoothness”.

What about the “Combing capability, cohesiveness and non-stickiness of healthy hair after conditioner” value [7] of the same compound?
The value was “poor hair cohesiveness”.

What about the Surface resistance value [8] of the same compound?
The Surface resistance value was 2×10^8 Ω.

For `NC(CO)(CO)CO.O=C1OC(C(O)CO)C(O)=C1O` (centres unmarked) [Compound C49], which “Water evaporation inhibition rate” value [9] is on record?
Its value is 32.19%.

What about the “Water retention property test 1 Pre-test moisture rate” value [10] of the same compound?
The value was 20.0%.

And the “Water retention property test 1 Post-test moisture rate” value ([10]; 24 hours at 40° C. and 25% RH)?
Its value is 19.4%.

What about the “Water retention property test 1 Rate of reduction in moisture” value ([10]; 24 hours at 40° C. and 25% RH) of the same compound?
The value was 3.0%.

And the “Appearance (Visual evaluation) After 7 days 50° C.” value [11]?
The value was “Δ”.

What about the “Appearance (Visual evaluation) After 7 days Room temperature” value [11] of the same compound?
Its value is “○”.

What about the “Appearance (Visual evaluation) Immediately after preparatiom” value [11] of the same compound?
Its value is “⊚”.

And the “Coloration of aqueous solution (stability)” value ([11]; room temperature or 50° C., seven days)?
Its value is “significant improvements in coloration”.

And the “Tyrosinase activity inhibition rate” value [12]?
Its value is 95.8%.

Which results are given for `CC(O)C(=O)O` (centres unmarked) [lactic acid, reference compound]?
Hair adhesion rate [13]: 1.1%; Hair adhesion rate ([3]; healthy hair, concentration 50 wt % (Table 11)): 1.1%
